“Also recorded” adds a separate entry of the source. Ends that are not written are not given here.
Key:
L. monocytogenes CBC1 = experiment: Deferred antagonism assay; type: cell-based, Listeria monocytogenes; parameters: key: + = Enhanced bioactivity relative to control; − = Bioactivity equal to or less than control; NA = no activity evident; details: L. mono CBC1; XX and XXX hinge mutant producers
Procedure: (§1) Deferred antagonism assays were performed by replicating strains on GM17 or GM17 x-gal agar plates and allowing them to grow overnight before overlaying with either GM17/BHI/TS/MH agar (0.75% w/v agar) seeded with the appropriate indicator strain. Zone size was calculated as the diameter of the zone of clearing minus the diameter of bacterial growth (5 mm) For higher throughput screening of N20PXX, XM21VX, XXK22T and XXX banks deferred antagonism assays were performed by replicating strains using a 96 pin replicator (Boekel) or spotting 5 μl of a fresh overnight culture on GM17 agar plates and allowing them to grow overnight. […] Additional sets of indicators were employed to further assess/reassess the bioactivity of a number of strains. […] For well-diffusion assays molten agar was cooled to 48° C. and seeded with the appropriate indicator strain. The inoculated medium was rapidly transferred into sterile Petri plates in 50 ml volumes, allowed to solidify and dried. Wells (4.6 mm in diameter) were then made in the seeded plates. Purified nisin and mutant nisins were resuspended in 0.005% acetic acid, serially diluted, 50 μl volumes were dispensed into the aforementioned wells and the plates incubated at 37° C. overnight. Bioactivity was expressed as arbitrary units/ml (AU/ml) and calculated as the reciprocal of the highest dilution that gave a definite zone multiplied by the conversion factor (i.e. 20 when 50 μl was used) (Ryan et al., 1996).
(§2) As a consequence of the enhanced activities of K22T and K22S, a more in-depth investigation of this region was carried out. Saturation mutagenesis was undertaken to create a bank of nisin A hinge derivatives containing the vast majority of possible amino acid substitutions for each position. Although pPTPL was used successfully for random mutagenesis, its relatively large size of approx 10.5 kb was considered unsuitable for the complete plasmid PCR amplification approach utilized for saturation mutagenesis. A smaller (approx 6 kb) E. coli-L. lactis shuttle vector pCI372 was considered to be potentially more useful. Its suitability with respect to the in trans expression of nisA was confirmed by the ability of pDFO5 to restore the nisin positive phenotype. Saturation mutagenesis was performed on each codon using pDF05 and oligonucleotides (Table 5) that replace the specific codon with a NNK triplet, potentially encoding all 20 standard amino acids. Following complete plasmid amplification and introduction into the intermediate Top10 host, sequence analysis of a pooled bank of pDF05 derivatives confirmed randomization. Introduction of these variants into L. lactis NZ9800 allowed the expression of mutant nisin A peptides for further analysis. […] 46 residue conversions were isolated. All strains, regardless of bioactivity, were assessed with a view to comprehensively assessing the consequences of each individual hinge alteration.

L. monocytogenes CBC2 = experiment: Deferred antagonism assay; type: cell-based, Listeria monocytogenes; parameters: key: + = Enhanced bioactivity relative to control; − = Bioactivity equal to or less than control; NA = no activity evident; details: L. mono CBC2; XX and XXX hinge mutant producers
Procedure: as §1, §2

L. monocytogenes CBC3 = experiment: Deferred antagonism assay; type: cell-based, Listeria monocytogenes; parameters: key: + = Enhanced bioactivity relative to control; − = Bioactivity equal to or less than control; NA = no activity evident; details: L. mono CBC3; XX and XXX hinge mutant producers
Procedure: as §1, §2

S. aureus CBC4 = experiment: Deferred antagonism assay; type: cell-based; parameters: key: + = Enhanced bioactivity relative to control; − = Bioactivity equal to or less than control; NA = no activity evident; details: XX and XXX hinge mutant producers
Procedure: as §1, §2

L. lactis CBC8 = experiment: Deferred antagonism assay; type: cell-based; parameters: key: + = Enhanced bioactivity relative to control; − = Bioactivity equal to or less than control; NA = no activity evident; details: XX and XXX hinge mutant producers
Procedure: as §1, §2

L. lactis CBC7 = experiment: Deferred antagonism assay; type: cell-based; parameters: key: + = Enhanced bioactivity relative to control; − = Bioactivity equal to or less than control; NA = no activity evident; details: XX and XXX hinge mutant producers
Procedure: as §1, §2

L. plantarum CBC6 = experiment: Deferred antagonism assay; type: cell-based, Lactobacillus plantarum; parameters: key: + = Enhanced bioactivity relative to control; − = Bioactivity equal to or less than control; NA = no activity evident; details: XX and XXX hinge mutant producers
Procedure: as §1, §2

indicator strains = experiment: Deferred antagonism assays, various indicator strains (summary); type: cell-based; details: for Target strain against which the hinge mutant was selected for enhanced bioactivity: XX and XXX banks, L. lactis HP*: enhanced or equal; for Target strain against which the hinge mutant was selected for enhanced bioactivity / Strain(s) against which the derivative (producing strain) displays enhanced bioactivity: relative to nisin A-producing control; for Strain(s) against which the derivative (producing strain) displays enhanced bioactivity: value = strains listed; for number of targets with enhanced activity: of the 8 additional targets tested
Procedure: as §1

## NisinA PLA (ITSISLCTPGCKTGALMGCPLATATCHCSIHVSK; not fully specified (bridges); also: lantibiotic nisin-A: lanthionine rings and dehydrated residues, places not given here; UniProt P13068 24-57, looked up, variant N20P M21L K22A) [nisin A hinge variant PLA (i.e. N20P, M21L, K22A)]
L. monocytogenes CBC1
  bioactivity relative to a nisin A-producing control: −
L. monocytogenes CBC2
  bioactivity relative to a nisin A-producing control: −
L. monocytogenes CBC3
  bioactivity relative to a nisin A-producing control: −
S. aureus CBC4
  bioactivity relative to a nisin A-producing control: +
L. lactis CBC8
  bioactivity relative to a nisin A-producing control: −
L. lactis CBC7
  bioactivity relative to a nisin A-producing control: −
L. plantarum CBC6
  bioactivity relative to a nisin A-producing control: −
Indicator strains
  Target strain against which the hinge mutant was selected for enhanced bioactivity: B. cereus UCC1
  Strain(s) against which the derivative (producing strain) displays enhanced bioactivity: B. cereus UCC1 and S. aureus CBC4

## NisinA PMC
L. monocytogenes CBC1
  bioactivity relative to a nisin A-producing control: −
L. monocytogenes CBC2
  bioactivity relative to a nisin A-producing control: −
L. monocytogenes CBC3
  bioactivity relative to a nisin A-producing control: +
S. aureus CBC4
  bioactivity relative to a nisin A-producing control: +
L. lactis CBC8
  bioactivity relative to a nisin A-producing control: −
L. lactis CBC7
  bioactivity relative to a nisin A-producing control: +
L. plantarum CBC6
  bioactivity relative to a nisin A-producing control: −
Indicator strains
  Target strain against which the hinge mutant was selected for enhanced bioactivity: B. cereus UCC1
  number of targets with enhanced activity: 3
  Strain(s) against which the derivative (producing strain) displays enhanced bioactivity: L. monocytogenes CBC3, S. aureus CBC4 and L. lactis CBC7; also recorded: L. mono CBC3, S. aureus CBC4, L. lactis CBC7

## NisinA PML
L. monocytogenes CBC1
  bioactivity relative to a nisin A-producing control: −
L. monocytogenes CBC2
  bioactivity relative to a nisin A-producing control: +
L. monocytogenes CBC3
  bioactivity relative to a nisin A-producing control: +
S. aureus CBC4
  bioactivity relative to a nisin A-producing control: +
L. lactis CBC8
  bioactivity relative to a nisin A-producing control: −
L. lactis CBC7
  bioactivity relative to a nisin A-producing control: +
L. plantarum CBC6
  bioactivity relative to a nisin A-producing control: −
Indicator strains
  Target strain against which the hinge mutant was selected for enhanced bioactivity: Staph. aureus RF122
  number of targets with enhanced activity: 4
  Strain(s) against which the derivative (producing strain) displays enhanced bioactivity: S. aureus RF122, L. monocytogenes CBC2 , CBC3, and CBC4 and L. lactis CBC7 and S. aureus RF122, L. mono CBC2, CBC3, CBC4, L. lactis and CBC7

## NisinA PMM
L. monocytogenes CBC1
  bioactivity relative to a nisin A-producing control: −
L. monocytogenes CBC2
  bioactivity relative to a nisin A-producing control: −
L. monocytogenes CBC3
  bioactivity relative to a nisin A-producing control: −
S. aureus CBC4
  bioactivity relative to a nisin A-producing control: −
L. lactis CBC8
  bioactivity relative to a nisin A-producing control: −
L. lactis CBC7
  bioactivity relative to a nisin A-producing control: −
L. plantarum CBC6
  bioactivity relative to a nisin A-producing control: −
Indicator strains
  Target strain against which the hinge mutant was selected for enhanced bioactivity: Staph. aureus RF122
  Strain(s) against which the derivative (producing strain) displays enhanced bioactivity: B. cereus UCC1; also recorded: B. cereus UCC

## NisinA PMQ
L. monocytogenes CBC1
  bioactivity relative to a nisin A-producing control: −
L. monocytogenes CBC2
  bioactivity relative to a nisin A-producing control: −
L. monocytogenes CBC3
  bioactivity relative to a nisin A-producing control: +
S. aureus CBC4
  bioactivity relative to a nisin A-producing control: +
L. lactis CBC8
  bioactivity relative to a nisin A-producing control: +
L. lactis CBC7
  bioactivity relative to a nisin A-producing control: +
L. plantarum CBC6
  bioactivity relative to a nisin A-producing control: −
Indicator strains
  Target strain against which the hinge mutant was selected for enhanced bioactivity: Strep. agalactiae ATCC 13813/B. cereus UCC1
  number of targets with enhanced activity: 4
  Strain(s) against which the derivative (producing strain) displays enhanced bioactivity: S. agalactiae ATCC13813, B. cereus UCC1, L. monocytogenes CBC3, S. aureus CBC4 , and L. lactis CBC7 , CBC8; also recorded: S. agalactiae ATCC13813, B. cereus UCC1, L. mono CBC3,

## NisinA PMT
L. monocytogenes CBC1
  bioactivity relative to a nisin A-producing control: −
L. monocytogenes CBC2
  bioactivity relative to a nisin A-producing control: −
L. monocytogenes CBC3
  bioactivity relative to a nisin A-producing control: −
S. aureus CBC4
  bioactivity relative to a nisin A-producing control: −
L. lactis CBC8
  bioactivity relative to a nisin A-producing control: −
L. lactis CBC7
  bioactivity relative to a nisin A-producing control: −
L. plantarum CBC6
  bioactivity relative to a nisin A-producing control: −
Indicator strains
  Target strain against which the hinge mutant was selected for enhanced bioactivity: Staph. aureus RF122
  Strain(s) against which the derivative (producing strain) displays enhanced bioactivity: S. aureus RF122

## NisinA PNR (ITSISLCTPGCKTGALMGCPNRTATCHCSIHVSK; not fully specified (bridges); also: lantibiotic nisin-A: lanthionine rings and dehydrated residues, places not given here; UniProt P13068 24-57, looked up, variant N20P M21N K22R) [nisin A hinge variant PNR (i.e. N20P, M21N, K22R)]
L. monocytogenes CBC1
  bioactivity relative to a nisin A-producing control: −
L. monocytogenes CBC2
  bioactivity relative to a nisin A-producing control: −
L. monocytogenes CBC3
  bioactivity relative to a nisin A-producing control: −
S. aureus CBC4
  bioactivity relative to a nisin A-producing control: −
L. lactis CBC8
  bioactivity relative to a nisin A-producing control: −
L. lactis CBC7
  bioactivity relative to a nisin A-producing control: −
L. plantarum CBC6
  bioactivity relative to a nisin A-producing control: −
Indicator strains
  Target strain against which the hinge mutant was selected for enhanced bioactivity: Staph. aureus RF122
  Strain(s) against which the derivative (producing strain) displays enhanced bioactivity: S. aureus RF122

## NisinA PSL
L. monocytogenes CBC1
  bioactivity relative to a nisin A-producing control: −
L. monocytogenes CBC2
  bioactivity relative to a nisin A-producing control: −
L. monocytogenes CBC3
  bioactivity relative to a nisin A-producing control: −
S. aureus CBC4
  bioactivity relative to a nisin A-producing control: −
L. lactis CBC8
  bioactivity relative to a nisin A-producing control: −
L. lactis CBC7
  bioactivity relative to a nisin A-producing control: −
L. plantarum CBC6
  bioactivity relative to a nisin A-producing control: −
Indicator strains
  Target strain against which the hinge mutant was selected for enhanced bioactivity: C. sporogenes UCC1/Staph. aureus RF122
  Strain(s) against which the derivative (producing strain) displays enhanced bioactivity: C. sporogenes UCC1 and S. aureus RF122

## NisinA PTA
L. monocytogenes CBC1
  bioactivity relative to a nisin A-producing control: −
L. monocytogenes CBC2
  bioactivity relative to a nisin A-producing control: −
L. monocytogenes CBC3
  bioactivity relative to a nisin A-producing control: −
S. aureus CBC4
  bioactivity relative to a nisin A-producing control: −
L. lactis CBC8
  bioactivity relative to a nisin A-producing control: −
L. lactis CBC7
  bioactivity relative to a nisin A-producing control: −
L. plantarum CBC6
  bioactivity relative to a nisin A-producing control: −
Indicator strains
  Target strain against which the hinge mutant was selected for enhanced bioactivity: C. sporogenes UCC1
  Strain(s) against which the derivative (producing strain) displays enhanced bioactivity: C. sporogenes UCC1

## NisinA PTL (ITSISLCTPGCKTGALMGCPTLTATCHCSIHVSK; thioether (positions not given here); not fully specified (residues 2, 5, 33, bridges); also: lantibiotic nisin A, thioether rings and dehydro residues not given here; UniProt P13068 24-57, looked up, variant N20P M21T K22L) [nisin A hinge variant PTL (i.e. N20P, M21T, K22L)]
L. monocytogenes CBC1
  bioactivity relative to a nisin A-producing control: −
L. monocytogenes CBC2
  bioactivity relative to a nisin A-producing control: −
L. monocytogenes CBC3
  bioactivity relative to a nisin A-producing control: +
S. aureus CBC4
  bioactivity relative to a nisin A-producing control: +
L. lactis CBC8
  bioactivity relative to a nisin A-producing control: −
L. lactis CBC7
  bioactivity relative to a nisin A-producing control: +
L. plantarum CBC6
  bioactivity relative to a nisin A-producing control: −
Indicator strains
  Target strain against which the hinge mutant was selected for enhanced bioactivity: C. sporogenes UCC1
  number of targets with enhanced activity: 3
  Strain(s) against which the derivative (producing strain) displays enhanced bioactivity: C. sporogenes UCC1, L. monocytogenes CBC3 and CBC 4 , and L. lactis CBC7; also recorded: C. sporogenes UCC1, L mono CBC3, 4, L. lactis CBC7
